Structures are written as SMILES.

In this test the test system is peritoneal macrophage. In words: Phagocytosis of peritoneal macrophage in mice. The test is classed as in vivo. Particulars: drugs subcutaneously daily for 7 days. The method, then:
Added 0.02 ml of 5% washed chick red blood cell suspension to 0.5 ml of the peritoneal exudate, shaken gently to mix and incubated at 37° C. for 5 minutes. Dipped two coverslips, closed to each other, in the above mixture and incubate for 30 minutes for the migration of the macrophages along the coverslips then fixed and stained with Sharma stain. Examined microscopically for: Phagocytic rate—number of macrophages with phagocytized chick red blood cells per 100 macrophages counted.
Method of animal model was regular. The drugs were injected subcutaneously daily for 7 days.

Turning to `O=P1(N(CCCl)CCCl)NCCCO1` (stereo not shown) [CY, Cyclophosphamide], the “Phagocytic rate (x + SD, %)” value stood at 7.52 ± 0.46%.

The values above are taken from US20030152647A1, “Safe botanical drug for treating malignant pleural effusion and cancer and increasing immune function” (priority 2002, published 2003).
